Measured values from patent US10188634B2, “3-(3H-imidazo[4,5-C]pyridin-2-yl)-1 H-pyrazolo[4,3-B]pyridines and therapeutic uses thereof” (Samumed, LLC, priority 2015, dated 2019).

Experiments:
[1] = system: Wnt activity (Sp5-Luc reporter, human Sp5 promoter with eight TCF/LEF binding sites) in SW480 colon carcinoma cells; assay: Screening assay for Wnt activity: Sp5-Luc reporter gene assay in SW480 cells; assay type: cell-based; details: for inhibition at 10 µM: read-out: percent inhibition at 10 μM (given for EC50 of >10 μM); for EC50: 10-point dose-response starting from 10 μM, overnight incubation
Text: The screening assay for Wnt activity is described as follows. Reporter cell lines can be generated by stably transducing cancer cell lines (e.g., colon cancer) or primary cells (e.g., IEC-6 intestinal cells) with a lentiviral construct that includes a Wnt-responsive promoter driving expression of the firefly luciferase gene.
SW480 colon carcinoma cells were transduced with a lentiviral vector expressing luciferase with a human Sp5 promoter consisting of a sequence of eight TCF/LEF binding sites. SW480 cells stably expressing the Sp5-Luc reporter gene and a hygromycin resistance gene were selected by treatment with 150 μg/mL of hygromycin for 7 days. These stably transduced SW480 cells were expanded in cell culture and used for all further screening activities. Each compound was dissolved in DMSO as a 10 mM stock and used to prepare compound source plates. Serial dilution (1:3, 10-point dose-response curves starting from 10 μM) and compound transfer was performed using the ECHO 550 (Labcyte, Sunnyvale, Calif.) into 384-well white solid bottom assay plates (Greiner Bio-One) with appropriate DMSO backfill for a final DMSO concentration of 0.1%. For Sp5-Luc reporter gene assays, the cells were plated at 4,000 cells/well in 384-well plates with medium containing 1% fetal bovine serum and incubated overnight at 37° C. and 5% CO2. Following incubation, 20 μl of BrightGlo luminescence reagent (Promega) was added to each well of the 384-well assay plates. The plates were placed on an orbital shaker for 2 min and then luminescence was quantified using the Envision (Perkin Elmer) plate reader. Readings were normalized to DMSO only treated cells, and normalized activities were utilized for EC50 calculations using the dose-response log (inhibitor) vs. response -variable slope (four parameters) nonlinear regression feature available in GraphPad Prism 5.0 (or Dotmatics). For EC50 of >10 μM, the percent inhibition at 10 μM is provided.

IL-6 in THP-1 cells = assay: Inhibition of IL-6 in LPS-stimulated THP-1 human monocyte cells (HTRF); assay type: cell-based; details: IL-6 HTRF; for EC50: 500 ng/mL LPS, 22 hours; for inhibition at 10 µM: LPS, read-out: percent inhibition in brackets (given for EC50 >10 μM)
Procedure: Human Monocyte Cell Culture: Human monocyte cell line (THP-1 cells; Catalog # TIB-202, ATCC, Manassas, Va.) were cultured in Roswell Park Memorial Institute (RPMI) 1640 Medium (Catalog #21870-100, Buffalo, N.Y.) with 1% L-glutamine, 1% HEPES, 1% Sodium Pyruvate, 2% Sodium Bicarbonate supplemented with 100 units/mL penicillin, 50 μg/mL streptomycin, 2-mercaptoethanol (0.05 mM) [basal medium] and 10% fetal bovine serum (Catalog #16140089, Life Technologies, Carlsbad, Calif.) at 37° C. and 5% CO2.
Compound Screening: THP-1 cells were cultured in basal media with 1% FBS for 24 hours before the start of the assay. Each compound was dissolved in DMSO as a 10 mM stock and used to prepare compound source plates. Serial dilution (1:3, 10-point dose-response curves starting from 10 μM) and compound transfer was performed using the ECHO 550 (Labcyte, Sunnyvale, Calif.) into 384-well white low volume assay plates (Greiner Bio-One) with appropriate DMSO backfill for a final DMSO concentration of 0.1%. THP-1 cells were plated at 5000 cells/well in the 384-well plates and incubated at 37° C. for 2 h. 500 ng/mL of LPS was added after 2 hours and cells were incubated for another 22 hours at 37° C. Plates were spun in a centrifuge for 1 minute at […] and a mixture of anti-IL6 XL665, and anti-IL6 Cryptate diluted in reconstitution buffer (Cisbio Inc.) was added to each well. Following incubation for 3 hrs at room temperature, Homogeneous Time-Resolved Fluorescence (HTRF) was measured using the Envision (Perkin Elmer) at 665 nm and […]. The ratio of fluorescence at 665 nm to 620 nm was used as a readout for IL6 quantification. All samples were processed in duplicate. Readings were normalized to DMSO treated cells and normalized activities were utilized for EC50 calculations using the dose-response log (inhibitor) vs. response -variable slope (four parameters) nonlinear regression feature available in GraphPad Prism 5.0 (or Dotmatics). For EC50 of >10 μM, the percent inhibition at 10 μM is provided.

| Structure (SMILES) | inhibition at 10 µM [1] [%] | EC50 [1] [µM] | EC50 (IL-6 in THP-1 cells) [µM] | inhibition at 10 µM (IL-6 in THP-1 cells) [%] |
| --- | --- | --- | --- | --- |
| CCC(=O)Nc1cncc(-c2ccc3[nH]nc(-c4nc5c(-c6cccc(F)c6)cncc5[nH]4)c3n2)c1 [Compound 1, N-(5-(3-(7-(3-Fluorophenyl)-3H-imidazo[4,5-c]pyridin-2-yl)-1H-pyrazolo[4,3-b]pyridin-5-yl)pyridin-3-yl)propionamide] | 12.3 | > 10 | > 10 | 25.8 |
| CC(C)CC(=O)Nc1cncc(-c2ccc3[nH]nc(-c4nc5c(-c6cccc(F)c6)cncc5[nH]4)c3n2)c1 [Compound 2, N-(5-(3-(7-(3-Fluorophenyl)-3H-imidazo[4,5-c]pyridin-2-yl)-1H-pyrazolo[4,3-b]pyridin-5-yl)pyridin-3-yl)-3-methylbutanamide] | 43 | > 10 | > 10 | 25.4 |
| Fc1cccc(-c2cncc3[nH]c(-c4n[nH]c5ccc(-c6ccncc6)nc45)nc23)c1 [Compound 18, 3-(7-(3-Fluorophenyl)-3H-imidazo[4,5-c]pyridin-2-yl)-5-(pyridin-4-yl)-1H-pyrazolo[4,3-b]pyridine] | 14 | > 10 | > 10 | 8.6 |
| O=C(Nc1cncc(-c2ccc3[nH]nc(-c4nc5c(-c6ccc(F)cc6)cncc5[nH]4)c3n2)c1)C1CCC1 [Compound 49, N-(5-(3-(7-(4-Fluorophenyl)-3H-imidazo[4,5-c]pyridin-2-yl)-1H-pyrazolo[4,3-b]pyridin-5-yl)pyridin-3-yl)cyclobutanecarboxamide] | 44 | > 10 | > 10 | 37.7 |
| Fc1ccc(-c2cncc3[nH]c(-c4n[nH]c5ccc(-c6cncnc6)nc45)nc23)cc1 [Compound 55, 3-(7-(4-Fluorophenyl)-3H-imidazo[4,5-c]pyridin-2-yl)-5-(pyrimidin-5-yl)-1H-pyrazolo[4,3-b]pyridine] | 18 | > 10 | > 10 | 13.4 |
| Nc1cncc(-c2ccc3[nH]nc(-c4nc5c(-c6ccccc6F)cncc5[nH]4)c3n2)c1 [Compound 59, 5-(3-(7-(2-Fluorophenyl)-3H-imidazo[4,5-c]pyridin-2-yl)-1H-pyrazolo[4,3-b]pyridin-5-yl)pyridin-3-amine] | 7 | > 10 | 0.094 |  |
| CC(C)C(=O)Nc1cncc(-c2ccc3[nH]nc(-c4nc5c(-c6ccccc6F)cncc5[nH]4)c3n2)c1 [Compound 65, N-(5-(3-(7-(2-fluorophenyl)-3H-imidazo[4,5-c]pyridin-2-yl)-1H-pyrazolo[4,3-b]pyridin-5-yl)pyridin-3-yl)isobutyramide] | 1 | > 10 | > 10 | 28.2 |
| CC(C)(C)CC(=O)Nc1cncc(-c2ccc3[nH]nc(-c4nc5c(-c6ccccc6F)cncc5[nH]4)c3n2)c1 [Compound 72, N-(5-(3-(7-(2-fluorophenyl)-3H-imidazo[4,5-c]pyridin-2-yl)-1H-pyrazolo[4,3-b]pyridin-5-yl)pyridin-3-yl)-3,3-dimethylbutanamide] | 5.7 | > 10 | > 10 | 29.8 |
| O=C(Nc1cncc(-c2ccc3[nH]nc(-c4nc5c(-c6ccccc6F)cncc5[nH]4)c3n2)c1)C1CCCC1 [Compound 78, N-(5-(3-(7-(2-Fluorophenyl)-3H-imidazo[4,5-c]pyridin-2-yl)-1H-pyrazolo[4,3-b]pyridin-5-yl)pyridin-3-yl)cyclopentanecarboxamide] | 6.6 | > 10 | > 10 | 40.4 |
| c1cncc(-c2ccc3[nH]nc(-c4nc5c(-c6cccnc6)cncc5[nH]4)c3n2)c1 [Compound 88, 5-(Pyridin-3-yl)-3-(7-(pyridin-3-yl)-3H-imidazo[4,5-c]pyridin-2-yl)-1H-pyrazolo[4,3-b]pyridine] | 28 | > 10 | > 10 | 13.9 |
| CC(C)C(=O)Nc1cncc(-c2ccc3[nH]nc(-c4nc5c(-c6cccnc6)cncc5[nH]4)c3n2)c1 [Compound 93, N-(5-(3-(7-(Pyridin-3-yl)-3H-imidazo[4,5-c]pyridin-2-yl)-1H-pyrazolo[4,3-b]pyridin-5-yl)pyridin-3-yl)isobutyramide] | 18.3 | > 10 | > 10 | 18 |
| c1ccc(CNCc2cncc(-c3ccc4[nH]nc(-c5nc6c(-c7cccnc7)cncc6[nH]5)c4n3)c2)cc1 [Compound 108, N-Benzyl-1-(5-(3-(7-(pyridin-3-yl)-3H-imidazo[4,5-c]pyridin-2-yl)-1H-pyrazolo[4,3-b]pyridin-5-yl)pyridin-3-yl)methanamine] | 5.3 | > 10 | 0.03 |  |
| Cc1ccncc1-c1ccc2[nH]nc(-c3nc4c(-c5ccncc5)cncc4[nH]3)c2n1 [Compound 117, 5-(4-Methylpyridin-3-yl)-3-(7-(pyridin-4-yl)-3H-imidazo[4,5-c]pyridin-2-yl)-1H-pyrazolo[4,3-b]pyridine] | 23.1 | > 10 | > 10 | 43.5 |
| CCCC(=O)Nc1cncc(-c2ccc3[nH]nc(-c4nc5c(-c6ccncc6)cncc5[nH]4)c3n2)c1 [Compound 129, N-(5-(3-(7-(Pyridin-4-yl)-3H-imidazo[4,5-c]pyridin-2-yl)-1H-pyrazolo[4,3-b]pyridin-5-yl)pyridin-3-yl)butyramide] | 0 | > 10 | > 1 | 18.7 |
| c1cc(-c2ccc3[nH]nc(-c4nc5c(-c6ccncc6)cncc5[nH]4)c3n2)ccn1 [Compound 130, 5-(pyridin-4-yl)-3-(7-(pyridin-4-yl)-3H-imidazo[4,5-c]pyridin-2-yl)-1H-pyrazolo[4,3-b]pyridine] | 9.8 | > 10 | > 10 | 29.3 |
| O=C(Nc1cncc(-c2ccc3[nH]nc(-c4nc5c(-c6ccncc6)cncc5[nH]4)c3n2)c1)C1CCCCC1 [Compound 135, N-(5-(3-(7-(pyridin-4-yl)-3H-imidazo[4,5-c]pyridin-2-yl)-1H-pyrazolo[4,3-b]pyridin-5-yl)pyridin-3-yl)cyclohexanecarboxamide] | 1.2 | > 10 | > 1 | 26.6 |
| CCNCc1cncc(-c2ccc3[nH]nc(-c4nc5c(-c6ccccn6)cncc5[nH]4)c3n2)c1 [Compound 146, N-((5-(3-(7-(Pyridin-2-yl)-3H-imidazo[4,5-c]pyridin-2-yl)-1H-pyrazolo[4,3-b]pyridin-5-yl)pyridin-3-yl)methyl)ethanamine] | 14.2 | > 10 | > 10 | 20.1 |
| O=C(Nc1cncc(-c2ccc3[nH]nc(-c4nc5c(-c6ccccn6)cncc5[nH]4)c3n2)c1)c1ccccc1 [Compound 151, N-(5-(3-(7-(Pyridin-2-yl)-3H-imidazo[4,5-c]pyridin-2-yl)-1H-pyrazolo[4,3-b]pyridin-5-yl)pyridin-3-yl)benzamide] | 23.9 | > 10 | > 10 | 20.3 |
